Measurements from patent publication US4680382A, “Analogues of actinomycin D” (priority 1986, dated 1987).

Tests used:
calf-thymus DNA = test: Equilibrium binding to calf-thymus DNA, Scatchard plots of binding isotherms (spectrophotometric); conditions: Scatchard plot
Description: (§1) The "reverse" analogues bind to calf-thymus DNA, but the spectrophotometrically determined binding (Kapp and Bapp, equilibrium binding values) constants are found to be lower than those of AMD. The binding is also measured by thermal denaturation of DNA.
(§2) The equilibrium binding constants (Kapp and Bapp) of the "reverse" methyl 7a and the "reverse" phenyl 8a were determined from the Scatchard plots of binding isotherms; the Scatchard plots are produced according to the previously described methods using calf-thymus DNA [Sengupta et al, Biochem. Biophys. Acta 521, 89 (1978)]. The Kapp values are 2.5×10^6 and 2.3×10^6 M^-1, respectively; corresponding Bapp values are 0.038 and 0.036. […] But, these "reverse" analogues associate with DNA less strongly; their frequency of binding is also lower compared to that of AMD. However, the "reverse" analogues fail to cause any measurable change in the ratio of the intrinsic viscosity (γ) of DNA with the increasing ratios of [ligand]/DNA base pair (r), even when low molecular weight DNAs (0.5×10^5 to 1.0×10^5) were employed.

DNA = test: Thermal denaturation of DNA (ΔTm); type: binding
Description: as §1, §2
Melting points are determined on a Thomas-Hoover melting point apparatus at a heating rate of 2° C./min. Thin-layer chromatography was performed on silica gel plates (Brinkmann Instrument Inc.). Solvent systems were (A) EtOAc-acetone (4:1), (B) CHCl3 -MeOH (9:1) and (C) Cifferri, the organic phase of the mixture EtOAc-MeOH-H2 O (20:1:20). High-performance liquid chromatography was carried out on a Varian Model 5020 gradient liquid chromatograph equipped with a CD-111L chromatography data system and fitted with a Varian reversed-phase C18 column with the following solvent systems: I, CH3 CN-5 mM NH4 OAc buffer, pH 6.4 (68:32 isocratic), flow rate 1.5 mL/min; II, 65-95% water-methanol gradient for 70 min, 1 mL/min; III, 10-90% H2 O-MeOH gradient for 120 min, 1 mL/min, with UV-visible variable- and fixed-wavelength dual detectors at 254, 440, 470 and 520 nm. IR spectra were obtained on a Perkin-Elmer Model 237 Infra Cord with KBr micropellets or in chloroform solutions. UV-visible spectra were obtained on a Gilford 250 spectrophorometer, which, with the addition of a base-line reference compensator (Analog Multiplexer 5053) and thermoprogrammer, auto four cell programmer and thermoelectric cell holder 2577, were used to obtain thermal denaturation curves. Specific rotation values were determined in chloroform solutions with a Cary 60 spectropolarimeter. NMR spectra were obtained in a JEOL FQ-90 MHz spectrometer equipped with Fourier transform. EPR spectra analyses were recorded in a Varian E-9 EPR spectrometer. All elemental analyses were within ±0.4%.

[1] = system: CCRF-CEM human lymphoblastic leukemic cells; test: In vitro cytotoxicity against CCRF-CEM cells; type: cell-based; conditions: 48 hr
Description: ^a Human lymphoblastic leukemic cells.
The analogues were tested for their cytotoxicity against tumor cells (time, 48 hr). […] This may be associated with the initial microsomal transformation of the "reverse" analogues to "symmetrical" analogue and/or other alternate bioactive forms (e.g., free-radicals, O2^-), followed by deactivation via formation of conjugates and facile elimination of these from the host. The "reverse" analogues show reduced toxicity in vivo and also the tritiated "reverse" 7a is metabolized in vitro.

P388 cells [2] = test: Inhibition of RNA synthesis (2-[14C]uridine incorporation) in P388 cells; type: cell-based, murine; conditions: for IC50: 50% reduction in 1 hr of 2-[14C]uridine incorporation, read-out: IC50 RNA synth; for IC50 DNA/IC50 RNA: ratio
Description: (§3) Experiments for inhibition of nucleic acid synthesis in tumor cells in vitro were carried out with P388 tumor cells, details of which were reported by Sengupta et al, J. Med. Chem., 18, 1175 (1975). […] AMD-OZLs inhibit either process with equal activity and with the potency of its metabolite 7-hydroxy-AMD.
^b IC50 (RNA) = concentration of inhibitor in μM required to
cause 50% reduction (in 1 hr) in 2[^14 C]uridine incorporation into
acid precipitable material with use of P388 cells.

P388 cells [3] = test: Inhibition of DNA synthesis (methyl-[3H]thymidine incorporation) in P388 cells; type: cell-based, murine; conditions: 50% reduction in 1 hr of methyl-[3H]thymidine incorporation, read-out: IC50 DNA synth
Description: as §3
^c IC50 (DNA) = concentration of inhibitor in μM required to
cause 50% reduction (in 1 hr) in methyl[^3 H]thymidine incorporation
into acid precipitable material with use of P388 cells.

[4] = system: P388 lymphocytic leukemia; test: In vivo antitumor activity against P388 leukemia; design: species or system BDF1 mice; conditions: for surv (surviving mice/total mice at 60 days) / % ILS / MST (range): P388, at optimal dose; for % ILS: 100(T/C - 1); for MST (range): control 11.0 (9-12); for optimal dose: P388, ip, days 1, 5 and 9, optimal nontoxic dose
Description: The analogues were tested for their antitumor activities in P388 lymphocytic leukemia in male BDF1 mice. The tumor was implanted intraperitoneally (ip) with 10^6 cells. The drugs were also administered ip once daily on days 1, 5 and 9, beginning 1 day after tumor transplantation. Analogues were tested over a range of doses, but only the optimal nontoxic doses are listed.
^a 10^6 P388 cells implanted ip on day 0 into groups of eight
BDF1 male mice. Drugs administered ip. MST (range), median survival
time in days (range of individual animal deaths); % ILS, percent increase
in life span, calculated 100(T/C - 1), where T and C are median survival
times of treated and control animals; surv, number of surviving mice/tota

B16 melanoma = test: In vivo antitumor activity against B16 melanoma; design: species or system BDF1 mice; conditions: for % ILS / surv (survivors on day 65/total injected) / MST (range): at optimal dose; for MST (range): control 29 (20-48); for optimal dose: ip, days 1, 5, 9
Description: AMD-OZL analogues 9a and 10a were about as active as AMD and 7-hydroxy-AMD. The potencies of these analogues are reduced in comparison to that of AMD; their optimal doses were higher than that of AMD.
^a 0.2 mL of 1:5 (weight/volume) brei of B16 melanoma implanted
ip on day 0 in groups of nine BDF1 mice. Drugs administered ip.
^b MST (range) median survival time in days (range of individual
^c % ILS (surv), percent increase in lifespan (survivors on day

P388/S = test: In vivo activity against P388/S (adriamycin sensitive) leukemia, Table VII; design: species or system BDF1 mice; conditions: for P388/S % ILS / P388/S tumor-free survivors/total on day 60: at optimal dose; for P388/S optimal dose: ip, days 1, 5 and 9
Description: (§4) ^a Male BDF1 mice inoculated ip: 10^6 cells inoculum, day 0.
(§5) Drugs administered in 10% dimethyl sulfoxidesaline on days 1, 5 and 9. %
(§6) ILS = percent increase in life span. Fractions in parentheses = tumorfree
(§7) survivors/total on day 60. P388/S (adriamycin sensitive) and P388/ADR
(§8) (adriamycin resistant) tumors were evaluated in the same experiment with […]

P388/ADR = test: In vivo activity against P388/adriamycin-resistant leukemia; design: species or system BDF1 mice; conditions: for P388/ADR optimal dose: ip, days 1, 5 and 9
Description: as §4, §5, §6, §7, §8

[5] = Maximum tolerated dose (LD10) in tumor-free BDF1 male mice; type: in vivo; conditions: lethal dose for 10% normal BDF1 male mice, 21 days (LD10); ip days 1, 5 and 9
Description: (§9) These analogues were also tested in tumor-free BDF1 male mice for determination of their MTD values (Table VIII). The animals (18-22 g) were given a broad range of doses of drugs in 5% dimethyl sulfoxide-saline on days 1, 5 and 9. Drugs were administered ip and the maximum tolerated doses of agents which caused death in only 10% of the tested animals in 21 days (i.e., LD10) were recorded as MTD. […] However, the MED values of 7-hydroxy-AMD and its precursor AMD-OZL 10a are high and are seven to tenfold of the MED values of 4a and 8a. On the basis of these MED values, the therapeutic indices of 8a and 4a are 70 and 96. The therapeutic index of 2a is 13, of 10a 10, and of AMD only 4.
^c MTD (maximum tolerated dose) is the lethal dose
(milligram/kilogram) for 10% normal BDF1 male mice (18-22 g); animal
calculated from a plot of logdose vs. percent mortality.

P388 Leukemia = test: Minimum effective dose and therapeutic index vs. P388 leukemia; type: in vivo; conditions: dose giving 45% increase in life span in P388 tumor bearing mice; ip days 1, 5 and 9
Description: as §9
^a Drugs administered ip once on days 1, 5 and 9 starting 1 day after
tumor implantation. Determinations were made from analysis of plotted
^b MED (minimum effective dose) is the dose (milligram/kilogram)
providing an increase in life span of 45% over control in P388 tumor

In the case of `Cc1c2oc3c(C)c4oc(-c5ccccc5)nc4c(C(=O)NC4C(=O)NC(C(C)C)C(=O)N5CCCC5C(=O)N(C)CC(=O)N(C)C(C(C)C)C(=O)OC4C)c3nc-2c(C(=O)NC2C(=O)NC(C(C)C)C(=O)N3CCCC3C(=O)N(C)CC(=O)N(C)C(C(C)C)C(=O)OC2C)c(N)c1=O` [8a, 7-Amino-9,11-dimethyl-2-phenyl-8H-8-oxooxazolo [4,5-b]phenoxazine 4,6-bis[carbonyl-L-threonyl-D-valyl-L-prolylsarcosyl-L-N-methylvaline(threonine hydroxyl)] lactone], the “Bapp (equilibrium binding value)” value (calf-thymus DNA) is reported as 0.036, the “Kapp (equilibrium binding constant)” value (calf-thymus DNA) is reported as 2.3e+06 M⁻¹ and the “ΔTm (DNA melting temperature)” value (DNA) is reported as 6.7±0.2 °C. For the same compound, the “in vitro (CCRF-CEM) ID50” value [1] was 30 nM, the IC50 (P388 cells [2]) was 70 nM and the “IC50 DNA/IC50 RNA” value (P388 cells [2]) was 11.43. The IC50 (P388 cells [3]) was 800 nM, the “surv (surviving mice/total mice at 60 days)” value [4] was 4/8 and the “% ILS” value [4] was 382%. For the same compound, the “MST (range)” value [4] was 52.0 (49-58) days, the optimal dose [4] was 375.0 μg/kg per inj and the “% ILS” value (B16 melanoma) was 103%. The “surv (survivors on day 65/total injected)” value (B16 melanoma) was 5/9, the “MST (range)” value (B16 melanoma) was 59 (53-59) days and the optimal dose (B16 melanoma) was 300 μg/kg per inj. For the same compound, the “P388/S % ILS” value (P388/S) was 382%, the “P388/S tumor-free survivors/total on day 60” value (P388/S) was 4/8 and the P388/S optimal dose (P388/S) was 0.35 mg/kg. The “P388/ADR % ILS” value (P388/ADR; at optimal dose) was 132%, the “P388/ADR tumor-free survivors/total on day 60” value (P388/ADR; at optimal dose) was 1/8 and the P388/ADR optimal dose (P388/ADR) was 0.6 mg/kg. The “MTD (maximum tolerated dose)” value [5] was 1.80 milligram/kilogram and the “MED (minimum effective dose)” value (P388 Leukemia) was 0.03 milligram/kilogram.
In the case of `Cc1c2oc3c(C)c4oc(-c5ccccc5)nc4c(C(=O)NC4C(=O)NC(C(C)C)C(=O)N5CCCC5C(=O)N(C)CC(=O)N(C)C(C(C)C)C(=O)OC4C)c3nc-2c(C(=O)NC2C(=O)NC(C(C)C)C(=O)N3CCCC3C(=O)N(C)CC(=O)N(C)C(C(C)C)C(=O)OC2C)cc1=O` (stereo not drawn) [10a, 2-Phenyl-AMD--OZL], the “in vitro (CCRF-CEM) ID50” value [1] is reported as 500 nM, the IC50 (P388 cells [2]) is reported as 3200 nM and the “IC50 DNA/IC50 RNA” value (P388 cells [2]) is reported as 1.78. The IC50 (P388 cells [3]) was 5700 nM, the “surv (surviving mice/total mice at 60 days)” value [4] was 2/8 and the “% ILS” value [4] was 186%. For the same compound, the “MST (range)” value [4] was 31.5 (29-57) days, the optimal dose [4] was 1000.0 μg/kg per inj and the “% ILS” value (B16 melanoma) was 55%. The “surv (survivors on day 65/total injected)” value (B16 melanoma) was 2/9, the “MST (range)” value (B16 melanoma) was 45 (33-56) days and the optimal dose (B16 melanoma) was 900 μg/kg per inj. The “P388/S % ILS” value (P388/S) was 186%, the “P388/S tumor-free survivors/total on day 60” value (P388/S) was 2/8 and the P388/S optimal dose (P388/S) was 1.0 mg/kg. For the same compound, the “P388/ADR % ILS” value (P388/ADR; at optimal dose) was 88%, the P388/ADR optimal dose (P388/ADR) was 1.2 mg/kg and the “MTD (maximum tolerated dose)” value [5] was 2.0 milligram/kilogram. The “MED (minimum effective dose)” value (P388 Leukemia) was 0.20 milligram/kilogram.
